# US11274073B2, “TRPV1 modulator compounds” (ANTALGENICS, S.L., priority 2017, dated 2022)
# Tests used:
# [1] = target: T1, rat TRPV1 channel (Rattus norvegicus, UniProt O35433); assay: Calcium microfluorometry assay on TRPV1-SH-SY5Y cells, single concentration 10 μM; format: cell-based; details: for TRPV1 activation at 10 μM (% ± SD): compound 10 μM, Fluo-4 NW fluorescence, Cap (10 μM capsaicin) = 100%; for TRPV1 blockage at 10 μM (% ± SD): compound 10 μM before stimulation with 10 μM capsaicin, RR (10 μM Ruthenium Red) = 100%
# T1 construct: expressed in transfected cells; host or cells: SH-SY5Y (human neuroblastoma) stably expressing rat TRPV1, under puromycin selection
# Protocol: (§1) The activity of the compounds was determined on TRPV1 expressing cells (TRPV1-SH-SY5Y) by Calcium microfluorometry assay.
# (§2) SH-SY5Y cells stably expressing rat TRPV1 channel (SH-SY5Y-TRPV1) were grown in Earle's minimum essential medium (MEM) containing 10% (v/v) of FCS, 1% nonessential amino acids, 2 mM L-glutamine, 100 μg/ml streptomycin, 100 U/ml penicillin, and 0.4 μg/ml puromycin in a humidity-controlled incubator with 5% CO2 and at 37° C. For fluorescence assays, cells expressing TRPV1 channel (TRPV1-SH-SY5Y) were seeded in 96-well plates (Corning Incorporated, Corning, N.Y.) at a cell density of 40,000 cells 2 days before treatment. The day of treatment the medium was replaced with 100 μL of the dye loading solution Fluo-4 NW supplemented with probenecid 2.5 mM. After incubation at 37° C. in a humidified atmosphere of 5% CO2 for 60 minutes, plates were transferred to a fluorescence plate reader (Polastar Omega BMG Labtech). The baseline fluorescence of Fluo-4 dye ([…]) was recorded for 4 cycles. […] The antagonist (10 μM Ruthenium Red for TRPV1) was added for the blockade. The changes in fluorescence intensity were recorded during 10 cycles more.
# [2] = target: T1, rat TRPV1 channel; assay: Dose response measurements (EC50/IC50), calcium microfluorometry on TRPV1-SH-SY5Y cells; format: cell-based; details: n=3 in 3 independent experiments; for EC50: TRPV1 activation; for IC50: TRPV1 blockage
# Protocol: as §1, §2
# Normalized responses (%) versus log [μM] were adjusted to a non-linear fit with variable slope, a four-parameter dose-response curve Y=100/(1+10^((LogEC50−X)*HillSlope)) where […] or just dose-response curve Y=100/(1+10^((LogEC50−X))). EC50 are expressed with 95% confident interval followed by r^2 for regression adjustment. All data are expressed as mean±standard error of the mean […]. Each condition was assessed by triplicate (n=3) in 3 independent experiments (N=3).
# [3] = tested on: C57-mice; assay: CFA-induced paw inflammation model of inflammatory pain, thermal hyperalgesia (paw withdrawal latency); format: in vivo; details: 24 h after CFA
# Protocol: Data are given as mean±SEM n=6. 2-way ANOVA with Bonferroni post hoc test. *P<0.05; **P<0.01, ***P<0.001, […].
# One of the compounds with higher potency (Ex-37) was selected to be tested in a model of inflammatory pain. C57-mice (≈30 g) were used for the study. C57BL/6 were obtained from Janvier, France. Complete Freund's adjuvant (CFA) emulsion (1:1 oil/saline, 0.5 mg/ml) was injected into the plantar surface (10 μl) of the right hind paw (Garcia-Martinez et al., 2006). 24 h after CFA injection, compound Ex-37 was administered intravenously (at 1 mg/kg, 3 mg/kg or 10 mg/kg) or intraplantar (at 10 mg/kg, 30 mg/kg or 100 mg/kg)) on the right hind paw. Thermal hyperalgesia was monitored 24 h after CFA injection and up to 2 h after administering the compound with an Ugo Basile Dynamic Plantar Aesthesiometer as reported previously (Garcia-Martinez et al., 2006). In brief, mice were habituated to an apparatus consisting of individual Perspex boxes on an elevated glass table. A mobile radiant heat source was located under the table and focused on the hind paw. Paw withdrawal latencies were defined as the time taken by the mouse to remove its hind paw from the heat source. A cutoff point of 25 s was set to prevent tissue damage.
# T1 sequence (O35433 whole entry): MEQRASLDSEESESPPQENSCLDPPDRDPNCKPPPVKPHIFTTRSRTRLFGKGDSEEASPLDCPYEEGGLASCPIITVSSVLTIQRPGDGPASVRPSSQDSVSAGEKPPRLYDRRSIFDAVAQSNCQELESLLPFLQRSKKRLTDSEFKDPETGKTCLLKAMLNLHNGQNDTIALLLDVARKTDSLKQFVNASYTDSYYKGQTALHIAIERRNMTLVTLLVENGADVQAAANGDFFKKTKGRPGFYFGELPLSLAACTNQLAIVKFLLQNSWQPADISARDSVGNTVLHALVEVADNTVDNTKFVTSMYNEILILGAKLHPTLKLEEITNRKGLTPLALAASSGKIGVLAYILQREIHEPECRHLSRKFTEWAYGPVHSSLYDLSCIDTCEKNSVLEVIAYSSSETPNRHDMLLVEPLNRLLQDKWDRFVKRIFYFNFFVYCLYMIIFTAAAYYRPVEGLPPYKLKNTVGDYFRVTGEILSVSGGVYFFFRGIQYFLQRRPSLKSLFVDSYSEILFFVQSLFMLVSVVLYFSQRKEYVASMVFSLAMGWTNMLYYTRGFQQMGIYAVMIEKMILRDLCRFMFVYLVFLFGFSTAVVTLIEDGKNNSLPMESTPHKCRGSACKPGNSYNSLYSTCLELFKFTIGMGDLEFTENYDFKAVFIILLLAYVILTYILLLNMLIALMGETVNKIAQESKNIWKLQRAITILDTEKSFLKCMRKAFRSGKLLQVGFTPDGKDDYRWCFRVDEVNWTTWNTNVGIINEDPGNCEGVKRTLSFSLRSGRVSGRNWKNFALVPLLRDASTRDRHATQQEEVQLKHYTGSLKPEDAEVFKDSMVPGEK
TRPV1 activation at 10 μM (% ± SD) [1] [%],EC50 [2] [µM],TRPV1 blockage at 10 μM (% ± SD) [1] [%],SMILES,other results
83.71 ± 6.00,0.015 ± 0.02,,"CC(C)=CCCC(C)=CCC/C(C)=C/CC/C=C(\C)CC/C=C(\C)CCC(=O)OCC(=O)NCc1ccc(O)c(O)c1 (stereo in doubt) [Ex-56, (4E,8E,12E,16E)-2-((3,4-dihydroxybenzyl)amino)-2-oxoethyl 4,8,13,17,21-pentamethyldocosa-4,8,12,16,20-pentaenoate]",
79.31 ± 6.41,0.04 ± 0.008,,"COc1cc(CNC(=O)COC(=O)CC/C(C)=C/CC/C(C)=C/CC/C=C(\C)CCC=C(C)CCC=C(C)C)ccc1O (stereo in doubt) [Ex-52, (4E,8E,12E,16E)-2-((4-hydroxy-3-methoxybenzyl)-amino)-2-oxoethyl 4,8,13, 17,21-pentamethyldocosa-4,8,12,16,20-pentaenoate]",
77.42 ± 5.17,0.11 ± 0.02,,"CC(C)=CCC/C(C)=C/C(=O)OCC(=O)NCc1ccc(O)c(O)c1 [Ex-54, (E)-2-((3,4-dihydroxybenzyl)amino)-2-oxoethyl 3,7-dimethylocta-2,6-dienoate]",
75.90 ± 2.49,0.28 ± 0.08,,"COc1cc(CNC(=O)COC(=O)/C=C(\C)CCC=C(C)C)ccc1O [Ex-32, (E)-2-((4-hydroxy-3-methoxy-benzyl)amino)-2-oxoethyl 3,7-dimethylocta-2,6-dienoate]",
,,43.18 ± 10.07,"CCCCCCCCCCCC(=O)OCC(=O)NCc1cc(OC)c(O)cc1I [Ex-37, 2-((4-hydroxy-2-iodo-5-methoxybenzyl)amino)-2-oxoethyl dodecanoate]","IC50 [2]: 0.86 ± 0.51 µM; antinociceptive effect in the thermal hyperalgesia test, intraplantar ([3]; intraplantar at 10, 30 or 100 mg/kg on the right hind paw, FIG. 2): showed antinociceptive effects; antinociceptive effect in the thermal hyperalgesia test, intravenous ([3]; intravenously at 1, 3 or 10 mg/kg, FIG. 1): showed antinociceptive effects"
,,1.13 ± 5.56,"CCCCCCCC/C=C\CCCCCCCC(=O)OCC(=O)NCCc1cc(O)c(O)cc1I [Ex-63, 2-((4,5-dihydroxy-2-iodophenethyl)amino)-2-oxoethyl oleate]",
,,8.35 ± 4.10,"COc1cc(CNC(=O)COC(=O)CC(C)C)c(I)cc1O [Ex-21, 2-((4-hydroxy-2-iodo-5-methoxybenzyl)amino)-2-oxoethyl 3-methyl-butanoate]",
,,21.85 ± 2.85,"CCCCC(=O)OCC(=O)NCc1cc(OC)c(O)cc1I [Ex-19, 2-((4-hydroxy-2-iodo-5-methoxybenzyl)amino)-2-oxoethyl pentanoate]",
,,104.22 ± 12.65,"CC(C)=CCC/C(C)=C/C(=O)OCC(=O)NCc1cc(O)c(O)cc1I [Ex-55, (E)-2-((4,5-dihydroxy-2-iodobenzyl)amino)-2-oxoethyl 3,7-dimethylocta-2,6-dienoate]",IC50 [2]: 6.82 ± 1.38 µM

SMILES,TRPV1 activation at 10 μM (% ± SD) [1] [%],EC50 [2] [µM],TRPV1 blockage at 10 μM (% ± SD) [1] [%],other results
"CCCCCCCCCCCC(=O)OCC(=O)NCc1ccc(O)c(OC)c1 [Ex-36, 2-((4-hydroxy-3-methoxy-benzyl)amino)-2-oxoethyl dodecanoate]",74.80 ± 8.30,0.08 ± 0.03,,
